Test results from patent US20040053962A1, “Methods for inhibiting proliferation and inducing apoptosis in cancer cells” (priority 2003, published 2004).

How the values were obtained:
Assay type in all cases: cell-based
[1] = system: MiaPaCa-2 pancreatic cancer cell line; test: [3H]-thymidine incorporation (DNA synthesis), MiaPaCa-2; set-up: effect on proliferation (thymidine incorporation): dose or concentration left out as unconfirmed
Description: (§1) Cell culture. The following pancreatic cancer cell lines were used: MiaPaCa-2 and PANC-1 (poorly-differentiated); Capan-1 and Capan-2 (well-differentiated); and HPAF and AsPC-1 (pleomorphic). These were purchased from American Type Culture Collection (Rockville, Md.). PANC-1 and MiaPaCa-2 were grown in DMEM media; HPAF and AsPC-1 were grown in MEM media; and Capan-1 and Capan-2 were grown in-McCoy's media. Media were supplemented with 10% FBS, and the cells were grown as monolayers in a humidified atmosphere of […] and 5% CO2 at 37° C. The cells were regularly seeded into 75 cm^2 flask with media changed every other day. For experiments, cells were grown to 80% confluence, digested with trypsin-EDTA, and plated either in 12 or 24-well plates at a concentration of 50,000/ml, as appropriate.
(§2) DNA synthesis by [^3H]-Thymidine incorporation. Cells were plated in 12 or 24-well plates. After reaching 70% confluence, they were incubated in serum-free media for 24 hours, which was then replaced with fresh serum-free media with or without the appropriate concentration of leukotriene B4 receptor antagonist LY293111 (62.5-1000 nM), LTB4 (100-400 nM), or both. After the appropriate period of culture, cellular DNA synthesis was assayed by adding 0.5 μCi/well of [^3H]-methyl-thymidine and incubating for another 2 hours. Then, the cells were washed twice with PBS, fixed with 10% trichloroacetic acid (“TCA”) for 30 minutes, and solubilized by adding 0.4 M NaOH to each well. Radioactivity, indicating incorporation of ^3H-thymidine into DNA, was measured by adding a scintillation cocktail and counting on a scintillation counter (LKB RackBeta, Wallac, Turku, Finland)

[2] = system: HPAF pancreatic cancer cell line; test: [3H]-thymidine incorporation (DNA synthesis), HPAF; set-up: effect on proliferation (thymidine incorporation): dose or concentration left out as unconfirmed
Description: as §1, §2

[3] = system: Bcl-2 in MCF-7 breast cancer cells; test: Bcl-2 expression by western blotting; settings: MCF-7, LTB4 100 nM

SMILES	effect on proliferation (thymidine incorporation) ([1]; MiaPaCa-2, 48 hours, likely a toxic effect, P=0.2316)	effect on proliferation (thymidine incorporation) ([2]; HPAF, 48 hours, likely a toxic effect, P=0.2217)	increase of proliferation compared with control ([1]; MiaPaCa-2 (FIG. 6A), 100 nM LTB4, 24 hours)	thymidine incorporation compared with control ([1]; MiaPaCa-2, LTB4 100 nM for 72 hours)	effect on proliferation (thymidine incorporation) ([1]; MiaPaCa-2, concentration and time-dependent, P<0.0001)	Bcl-2 expression (western blot) [3]	increase of proliferation compared with control ([2]; HPAF (FIG. 6B), 100 nM LTB4, 24 hours)	thymidine incorporation compared with control ([2]; HPAF, LTB4 100 nM for 72 hours)	effect on proliferation (thymidine incorporation) ([2]; HPAF, concentration and time-dependent, P<0.0001)
CCCc1c(OCCCCc2nnn[nH]2)ccc(C(C)=O)c1O [LY171883, 1-(2-hydroxy-3-propyl-4-(4-(1H-tetrazol-5-yl)butoxy)phenyl)ethanone, reference compound]	only affected proliferation at the highest concentration	only affected proliferation at the highest concentration							
CCCCC/C=C\C[C@@H](O)/C=C/C=C/C=C\[C@@H](O)CCCC(=O)O [LTB4, Leukotriene B4, reference compound]			25%	more than doubled	stimulated the proliferation	increase expression	25%	more than doubled	stimulated the proliferation
